Legend:
[1] = test system: human smooth muscle cell migration; assay: Human smooth muscle cell migration toward plasma from MI patients (modified Boyden chamber); type: cell-based; settings: for synergy with antioxidant on the inhibition of human smooth muscle cell migration: garlic ingredients 1 μM each plus ascorbic acid 3 μM, FIG. 5; for effect on human smooth muscle cell migration toward plasma from MI patients: antioxidants alone, 3 μM each, FIG. 3
Description: Graph showing the modified Boyden chamber used to examine the effect of garlic ingredients, antioxidants, and combinations on human smooth muscle cell migration toward plasma obtained from acute myocardial infarction patients (MI) during balloon angioplasty and stent coronary intervention.
The procedure is as follow: 20 μl plasma was placed in the bottom chamber (A), smooth muscle suspension 1×10^6 cells in 5 μl with or without the various garlic active ingredients, antioxidants or combinations were placed in the top chamber (B). The chamber B was fitted over chamber A, covered and placed in a CO2 (5%)/O2 (95%) incubator for 22 hours at 37° C. The filter from chamber B was taken out of the chamber and the cells on the top were scraped off using a cell scraper. The filter was placed in formaldehyde, Triton X100, washing buffer solution, stained with Rhodamine phloyden, and then a washing solution as shown in station C (front view) and D (side view). The filter was then dried and put in a fluorescence plate reader to read the degree of fluorescence.

HUVEC = assay: FGF2-induced endothelial cell tube formation on Matrigel; type: cell-based, human
Description: For the different in vitro assays human smooth muscle cells and human umbilical vein endothelial (HUVEC) cells were obtained from (Clonetics, Walkersville, Md.). Endothelial cells (EC) were grown to 80-90% confluence in Endothelial Growth Medium (EGM) containing hEGF 10 ng/ml, hydrocortisone […], gentamicin […], amphotercin-B 50 ug/ml, Blood Brain Extract 0.012 mg/ml and 2% Fetal Bovine Serum equilibrated with 95% air/5% CO2 at 37° C. HUVEC cells will be serially passed in Endothelial Growth in cell culture flasks coated with gelatin 0.2%, (Sigma, St. Louis, Mo.). Confluent cultures of endothelial cells between the 3rd and 6th passages were washes with HBSS and harvested using 0.025% trypsin/0.01% EDTA and counted by hemacytometer. […]
Microscopic Analysis of Endothetial Cell Tube Formation: […] Digital images of microtiter well sections were collected using a 3-CCD color video camera system ([…], New York, N.Y.) and analyzed with the Image-Pro Plus software (Media Cybernetics, Silver Spring, Md.). The area and major axis length of stained cells having a tubular morphology on the Matrigel surface counted from 5 images/well. Area data is expressed in units of 10^4 square microns and length data is expressed as length/area in units of mm/mm^2. […]

[2] = test system: bFGF-induced angiogenesis on the CAM; assay: FGF2 (bFGF)-induced angiogenesis in the chick chorioallantoic membrane (CAM) model; type: in vivo
Description: In Vivo Angiogenesis: Ten-day old chick embryos were purchased from Spafas, Inc. (Preston, Conn.) and were incubated at 37° with 55% humidity generally referred to as chick chorioallantoic membrane (CAM) model. A small hole was punctured in the shell concealing the air sac with a hypodermic needle. A second hole was punctured in the shell on the broadside of the egg directly over an avascular portion of the embryonic membrane, as observed during candling. A false air sac was created beneath the second hole by the application of negative pressure to the first hole, which caused the CAM to separate form the shell. A window, approximately 1.0 cm2, was cut the in the shell over the dropped CAM with the use of a small crafts grinding wheel (Dermal, Division of Emerson Electric Company (Racine, Wis.) which allowed direct access to the underlying CAM.
Filter disks of #1 filter paper (Whatman International, United Kingdom) were soaked in 3 mg/ml cortisone acetate (Sigma, St. Louis, Mo.) in a solution of 95% ethanol and water and subsequently air dried under sterile conditions. […] Blood vessel branch points in the 5 mm filter disk area were counted at 30× magnification in a blinded fashion as a size-independent quantitative indicator of vascular sprouting in response to growth factors. As angiogenesis is characterized by the sprouting of new vessels in response to growth factors, counting blood vessel branch points is a useful quantitative means of obtaining an angiogenic index. […] Data was evaluated in terms of average number of blood vessel branch points per treatment group±standard deviation of measurement. […]
Microscopic Analysis of CAM Sections: CAM tissue directly beneath FGF2-saturated filter disk was resected from embryos treated 48 hours prior with compounds or controls. […] Digital images of CAM sections adjacent to filters were collected using a 3-CCD color video camera system (Toshiba America, New York, N.Y.) and analyzed with the Image-Pro Plus software (Media Cybernetics, Silver Spring, Md.). […]

[3] = test system: tumor growth in the CAM model; assay: Chick chorioallantoic membrane tumor assay model; type: in vivo; settings: different types of tumor; by inhibiting tumor-induced angiogenesis
Description: In addition to the angiogenesis assays described above where the effect of the garlic sulfur containing ingredient Alliin±antioxidants were evaluated, the anti-tumor efficacy for Alliin+antioxidants were evaluated as well. Ten million tumor cells were placed on the surface of each CAM and were cultured for one week. The resulting tumors were excised and cut into 50 mg fragments. Cheresh et al., Cell 58: 945-953 (1989), Brooks et al., J. Cell Biol., 122:1351 (1993) and as described herein. These fragments were placed on additional CAMs and treated topically the following day with 0.11 mg in 25 μl of Alliin with and without anti-oxidant or saline. Forty eight hours later, CAMs were excised from the egg and the number of blood vessels entering the tumors were counted (as vessel branch points).
Data presented as mean blood vessel number per treatment group (+/− standard error of measurement). Each treatment group incorporated at least ten tumors per experiment. Representative tumors were photographed at 10× magnification. Tumors were then excised from the egg and tumor weights were determined for each tumor. Data presented as mean tumor weight per treatment group (+/− standard error of measurement). Statistical analyses were performed using Student's t-test.

## Alliin
[1]
  synergy with antioxidant on the inhibition of human smooth muscle cell migration: synergy
[1]; qualitative, micrographs treated vs untreated, FIG. 4
  inhibition of smooth muscle cell migration toward plasma from MI subjects: Inhibition of smooth muscle cell migration
HUVEC; Alliin ± antioxidants, FIG. 10, n=6
  efficacy on FGF2-induced EC tube formation: Concentration-dependent efficacy
HUVEC; HUVEC, FGF2 50 ng/ml, alliin 0-0.011 mg
  inhibition of cytokine stimulated tube formation: 90-100%
[2]; Alliin ± antioxidants, FIG. 11B, n=6
  efficacy on FGF2-induced angiogenesis in the CAM model: Dose-dependent efficacy
[2]; applied to filter disk or injected intravenously 24 h after bFGF
  blockade of bFGF-induced angiogenesis on the CAM: at least 92+/−10%
[2]; applied to the growth factor saturated filter 24 h after bFGF, CAMs excised after three days
  inhibition of growth of new blood vessels induced by bFGF (vessel branch points): 92 +/−10%
[3]
  tumor growth in the CAM model: inhibited

## C=CCSSCC=C [allyl disulfide]
[1]
  synergy with antioxidant on the inhibition of human smooth muscle cell migration: synergy

## ethylene diphenyl urea [EDU]
[1]
  effect on human smooth muscle cell migration toward plasma from MI patients: lack of effect

## O=C1O[C@H]([C@@H](O)CO)C(O)=C1O [ascorbic acid]
[1]
  effect on human smooth muscle cell migration toward plasma from MI patients: lack of effect

Reference: US6866864B2, “Compositions and methods of use in the treatment of angiogenesis and vascular-related disorders” (priority 2000, dated 2005)
